Reference: US20250041308A1, “BRUTON'S TYROSINE KINASE INHIBITORS AS ANTIVIRAL AGENTS” (University of Florida Research Foundation, Incorporated, priority 2022, published 2025)

Columns and labels:
Type in all cases: cell-based, Epstein-Barr virus (EBV)
[1] = system: EBV lytic cycle (ZEBRA) in EBV-positive Mutu-I Burkitt lymphoma cells; test: Flow cytometry for ZEBRA in Mutu-I cells, lytic cycle induced with sodium butyrate; settings: sodium butyrate 24 hours, 2 h pretreatment
Excerpt: (§1) Cells were harvested, fixed and permeabilized, stained with a monoclonal antibody to the viral latent-to-lytic switch protein ZEBRA, and examined by flow cytometry. Cells were stained in parallel with an isotype-matched control antibody for placement of gates. […] Decreasing EBV switching to lytic phase decreases the risk of the B cells developing lymphoma.

[2] = system: EBV lytic cycle proteins ZEBRA and EA-D in EBV-positive HH514-16 Burkitt lymphoma cell line; test: Immunoblotting for ZEBRA and EA-D in HH514-16 cells induced with sodium butyrate
Excerpt: Cells were harvested and subjected to immunoblotting with monoclonal antibodies to ZEBRA and EA-D (Early antigen-diffuse). EA-D is useful in the diagnosis of acute Epstein-Barr virus (EBV) infection and EBV reactivation and functions downstream of ZEBRA.
Cells were harvested and subjected to immunoblotting with monoclonal antibodies to ZEBRA or the control protein β-actin to analyze protein expression.

[3] = system: ZEBRA and cleaved caspase 1 in EBV-positive Mutu-I Burkitt lymphoma cells; test: Immunoblotting for ZEBRA, procaspase 1 and cleaved caspase 1 in Mutu-I cells induced with sodium butyrate; settings: 1 μM for 2 hours before sodium butyrate for 24 hours, FIG. 7
Excerpt: Cells were harvested and subjected to immunoblotting with monoclonal antibodies to ZEBRA, procaspase 1, cleaved caspase 1, or the control protein β-actin to analyze protein expression. […] Cleavage of caspase is a marker for programmed cell death.

[4] = system: EBV lytic cycle proteins ZEBRA and EA-D in EBV-positive HH514-16 Burkitt lymphoma cell line; test: Immunoblotting for ZEBRA and EA-D in HH514-16 cells induced with AZA; settings: HH514-16, varying concentrations 2 hours before AZA for 24 hours, FIG. 2
Excerpt: (§2) Cells were harvested and subjected to immunoblotting with monoclonal antibodies to ZEBRA and EA-D (Early antigen-diffuse).

[5] = system: EBV lytic cycle (ZEBRA) in EBV-positive HH514-16 Burkitt lymphoma cell line; test: Flow cytometry for ZEBRA in HH514-16 cells, lytic cycle induced with AZA; settings: for Percent positive cells ZEBRA: 2 h pretreatment
Excerpt: Cells were harvested, fixed and permeabilized, stained with a monoclonal antibody to the viral latent-to-lytic switch protein ZEBRA (Z EBV Replication Activator), and examined by flow cytometry. Cells were stained in parallel with an isotype-matched control antibody for placement of gates.

[6] = system: EBV lytic cycle proteins ZEBRA and EA-D in EBV-positive Akata Burkitt lymphoma cell line; test: Immunoblotting for ZEBRA and EA-D in Akata cells induced with anti-IgG; settings: varying concentrations 2 hours before anti-IgG for 24 hours, FIG. 3
Excerpt: as §2

[7] = system: EBV lytic cycle (ZEBRA) in EBV-positive Akata Burkitt lymphoma cell line; test: Flow cytometry for ZEBRA in Akata cells, lytic cycle induced with rabbit-anti human IgG; settings: for Percent positive cells ZEBRA: Rabbit anti-human IgG induction 24 h, 2 h pretreatment
Excerpt: Akata cells are an EBV-producer line established from a patient with Burkitt's lymphoma. Akata cells produce transforming virus upon treatment of cells with anti-immunoglobulin antibodies. Cells were harvested, fixed and permeabilized, stained with a monoclonal antibody to the viral latent-to-lytic switch protein ZEBRA (Z EBV Replication Activator), and examined by flow cytometry. Cells were stained in parallel with an isotype-matched control antibody for placement of gates.

[8] = system: EBV lytic cycle (ZEBRA) in EBV-positive HH514-16 Burkitt lymphoma cell line; test: Flow cytometry for ZEBRA in HH514-16 cells, lytic cycle induced with sodium butyrate; settings: for Percent positive cells ZEBRA: 2 h pretreatment
Excerpt: as §1, with “ZEBRA (Z EBV Replication Activator),” for “ZEBRA,”, “cytometry. ZEBRA is an early lytic protein of EBV, encoded by BZLFI, that drives the lytic cascade.” for “cytometry.”

[9] = HH514-16, varying concentrations 2 hours before sodium butyrate for 24 hours, FIG. 4
[10] = HH514-16, varying concentrations 2 hours before NaB for 24 or 48 hours, FIG. 1

## CC#CC(=O)N1CCC[C@H]1c1nc(-c2ccc(C(=O)Nc3ccccn3)cc2)c2c(N)nccn12 [Acalabrutinib]
[1]; inhibitor conc. 1 μM
  Percent ZEBRA positive cells: 1.15%
[1]; inhibitor conc. 10 μM
  Percent ZEBRA positive cells: 0.92%
[2]; [9]
  expression of ZEBRA (immunoblot): significantly reduced
[3]
  Cleaved caspase 1 (immunoblot): significantly reduced
  expression of ZEBRA (immunoblot): significantly reduced

## C=CC(=O)N1CCC[C@@H](n2nc(-c3ccc(Oc4ccccc4)cc3)c3c(N)ncnc32)C1 [Ibrutinib]
[1]; inhibitor conc. 0.5 μM
  Percent ZEBRA positive cells: 0.52%
[1]; inhibitor conc. 1 μM
  Percent ZEBRA positive cells: 0.73%
[4]
  expression of EA-D (immunoblot): significantly reduced
  expression of ZEBRA (immunoblot): significantly reduced
[5]; HH514-16, AZA 24 or 48 hours, varying concentrations
  levels of ZEBRA (flow cytometry, in words): decreased
[5]; HH514-16, AZA induction 24 h, ibrutinib 0.25 μM
  Percent positive cells ZEBRA: 13%
[5]; HH514-16, AZA induction 24 h, ibrutinib 0.5 μM
  Percent positive cells ZEBRA: 11%
[5]; HH514-16, AZA induction 24 h, ibrutinib 1 μM
  Percent positive cells ZEBRA: 9.0%
[5]; HH514-16, AZA induction 24 h, ibrutinib 2 μM
  Percent positive cells ZEBRA: 10%
[5]; HH514-16, AZA induction 24 h, ibrutinib 5 μM
  Percent positive cells ZEBRA: 9.0%
[5]; HH514-16, AZA induction 48 h, ibrutinib 0.25 μM
  Percent positive cells ZEBRA: 13%
[5]; HH514-16, AZA induction 48 h, ibrutinib 0.5 μM
  Percent positive cells ZEBRA: 13%
[5]; HH514-16, AZA induction 48 h, ibrutinib 1 μM
  Percent positive cells ZEBRA: 15%
[5]; HH514-16, AZA induction 48 h, ibrutinib 2 μM
  Percent positive cells ZEBRA: 13%
[5]; HH514-16, AZA induction 48 h, ibrutinib 5 μM
  Percent positive cells ZEBRA: 14%
[6]
  expression of EA-D (immunoblot): significantly reduced
  expression of ZEBRA (immunoblot): significantly reduced
[7]; ibrutinib 0.25 μM
  Percent positive cells ZEBRA: 7%
[7]; ibrutinib 0.5 μM
  Percent positive cells ZEBRA: 7%
[7]; ibrutinib 1 μM
  Percent positive cells ZEBRA: 5.5%
[7]; ibrutinib 2 μM
  Percent positive cells ZEBRA: 5.7%
[7]; ibrutinib 5 μM
  Percent positive cells ZEBRA: 5.7%
[7]; rabbit-anti human IgG 24 hours, varying concentrations
  levels of ZEBRA (flow cytometry, in words): decreased
[2]; [10]
  expression of EA-D (immunoblot): significantly reduced
  expression of ZEBRA (immunoblot): significantly reduced
[2]; [9]
  expression of ZEBRA (immunoblot): significantly reduced
[8]; HH514-16, NaB 24 or 48 hours, varying concentrations
  levels of ZEBRA (flow cytometry, in words): decreased
[8]; HH514-16, Sodium Butyrate induction 24 h, ibrutinib 0.25 μM
  Percent positive cells ZEBRA: 13%
[8]; HH514-16, Sodium Butyrate induction 24 h, ibrutinib 0.5 μM
  Percent positive cells ZEBRA: 9.5%
[8]; HH514-16, Sodium Butyrate induction 24 h, ibrutinib 1 μM
  Percent positive cells ZEBRA: 9.0%
[8]; HH514-16, Sodium Butyrate induction 24 h, ibrutinib 2 μM
  Percent positive cells ZEBRA: 8.6%
[8]; HH514-16, Sodium Butyrate induction 24 h, ibrutinib 5 μM
  Percent positive cells ZEBRA: 7.0%
[8]; HH514-16, Sodium Butyrate induction 48 h, ibrutinib 0.25 μM
  Percent positive cells ZEBRA: 38%
[8]; HH514-16, Sodium Butyrate induction 48 h, ibrutinib 0.5 μM
  Percent positive cells ZEBRA: 30%
[8]; HH514-16, Sodium Butyrate induction 48 h, ibrutinib 1 μM
  Percent positive cells ZEBRA: 23%
[8]; HH514-16, Sodium Butyrate induction 48 h, ibrutinib 2 μM
  Percent positive cells ZEBRA: 22%
[8]; HH514-16, Sodium Butyrate induction 48 h, ibrutinib 5 μM
  Percent positive cells ZEBRA: 18%

## C=CC(=O)N1CCC([C@@H]2CCNc3c(C(N)=O)c(-c4ccc(Oc5ccccc5)cc4)nn32)CC1 [Zanubrutinib]
[1]; inhibitor conc. 1 μM
  Percent ZEBRA positive cells: 0.65%
[1]; inhibitor conc. 10 μM
  Percent ZEBRA positive cells: 0.85%
[2]; [9]
  expression of ZEBRA (immunoblot): significantly reduced
[3]
  Cleaved caspase 1 (immunoblot): significantly reduced
  expression of ZEBRA (immunoblot): significantly reduced
